In US20250011881A1, “MYC-HSF1 DUAL AMPLIFICATION AS A BIOMARKER FOR CANCER TREATMENT” (The Trustees of Indiana University, priority 2023, published 2025):
Several values for one entry are separate records, joined by “and”; a condition that tells them apart may be missing. Equal values may be shown once. Where a name gives a salt, the structure may show the parent alone.

test system: ovarian cancer cells with (OVCAR8, OVCAR4) or without (OVSAHO, CAOV3) MYC-HSF1 amplification; test: Epigenetic inhibitor drug screen, cell viability (Cell Titer Blue); type: cell-based; conditions: not given

Structure (SMILES)	Non Amp - AMP (POC) 10 uM [POC]
CN(C)CCCn1cc(C2=C(c3c[nH]c4ccccc34)C(=O)NC2=O)c2ccccc21 [GF 109203X]	3.766
O=C(O)CCNc1cc(N2CCc3ccccc3CC2)nc(-c2ccccn2)n1 [GSK J1]	1.38
Cl.Cl.c1ccc([C@@H]2C[C@H]2NC2CCNCC2)cc1 [GSK-LSD1 2HCl]	2.922
CCS(=O)(=O)Nc1ccc2c(c1)/C(=C(/Nc1ccc(CN3CCCCC3)cc1)c1ccccc1)C(=O)N2 [Hesperadin]	39.85

same assay, conditions: 10 uM, 48 hrs; average relative cell viability (vs 1% DMSO) of non-amplified cells (OVSAHO, CAOV3) minus that of MYC-HSF1 amplified cells (OVCAR8, OVCAR4); positive = greater response in amplified cells

Structure (SMILES)	Non Amp - AMP (POC) 10 uM [POC]
CC(C)(CCCCCC(O)CCCCCC(C)(C)C(=O)O)C(=O)O [ETC-1002]	−2.506
NC(=O)C1CCCc2c1[nH]c1ccc(Cl)cc21 (stereo not drawn) [EX 527 (SEN0014196)]	−0.5892
O=c1oc2c(O)c(O)cc3c(=O)oc4c(O)c(O)cc1c4c23 [Ellagic acid]	13.8
CCN(CC)C(=O)/C(C#N)=C/c1cc(O)c(O)c([N+](=O)[O-])c1 [Entacapone]	−6.777
Cn1cc(C2=C(c3cn(C4CCN(Cc5ccccn5)CC4)c4ccccc34)C(=O)NC2=O)c2ccccc21 [Enzastaurin (LY317615), Enzastaurin]	13.08
O=C(O)CNC(=O)c1nc(Cl)c2ccccc2c1O [FG2216]	−1.816
Cc1nc(C(=O)NCC(=O)O)c(O)c2ccc(Oc3ccccc3)cc12 [FG-4592 (ASP1517)]	−0.1816
O=S(=O)(c1cccc2cnccc12)N1CCCNCC1 [Fasudil (HA-1077) HCl, Fasudil]	15.8
O=c1c(O)c(-c2ccc(O)c(O)c2)oc2cc(O)ccc12 [Fisetin]	10.02
O=C(O)c1ccccc1Nc1cccc(C(F)(F)F)c1 [Flufenamic acid]	−4.318
CS(=O)(=O)c1ccc(-c2nnc(/C=C/c3nnc(-c4ccc(C#N)cc4)o3)n2-c2ccccc2Cl)nc1 [G007-LK]	−1.13
N#Cc1ccc(COc2ccc(-c3cccc4nc(NC(=O)C5CC5)nn34)cc2)cn1 [GLPG0634 analogue]	−7.702
O=C(Nc1nc2cccc(-c3ccc(CN4CCS(=O)(=O)CC4)cc3)n2n1)C1CC1 [GLPG0634]	15.53
COc1cc(C(=O)N2CC[C@@H](O)[C@@H](N)C2)cc2nc(-c3cc4ccccc4n3CC3CC3)n(C)c12.Cl [GSK484 (hydrochloride)]	0.3153
Cc1cc(C)c(CNC(=O)c2cc(-c3ccc(N4CCN(C)CC4)nc3)cc3c2c(C)cn3C(C)C)c(=O)[nH]1 [GSK503]	−0.09843
CCn1c(-c2nonc2N)nc2c(C#CC(C)(C)O)ncc(OC[C@H]3CCCNC3)c21 [GSK690693]	−7.029
CC(=O)N1c2ccc(-c3ccc(C(=O)O)cc3)cc2[C@H](Nc2ccc(Cl)cc2)C[C@@H]1C [GSK1324726A]	0.1295
COc1ccccc1C(=O)Nc1cc2c(cc1N1CCCCC1)n(C)c(=O)n2C [GSK 5959]	10.99
O=C(O)CCNc1cc(N2CCc3ccccc3CC2)nc(-c2cccnc2)n1 [GSK J2]	0.5701
O=C1Nc2cc(Br)ccc2/C1=C1/Nc2ccccc2/C1=N\O [GSK-3 Inhibitor IX (BIO)]	−1.008
O=C(O)CCNc1cc(N2CCc3ccccc3CC2)nc(-c2ccccn2)n1 [GSK-J1 (sodium salt)]	8.487
c1ccc([C@@H]2C[C@H]2NC2CCNCC2)cc1 [GSK-LSD1 (hydrochloride)]	14.88

Structure (SMILES)	Non Amp - AMP (POC) 10 uM [POC]
C=C(C)[C@@H](CC=C(C)C)C[C@@]12C[C@@H](CC=C(C)C)C(C)(C)[C@@](CC=C(C)C)(C(=O)C(C(=O)c3ccc(O)c(O)c3)=C1O)C2=O [Garcinol]	6.401
Cn1c2ccccc2c2c3c(c4c5ccccc5n(CCC#N)c4c21)CNC3=O [Go 6976]	5.045
COc1ccc2c(c1)c(C1=C(c3c[nH]c4ccccc34)C(=O)NC1=O)cn2CCCN(C)C [Go 6983]	14.34
Cl.O=S(=O)(c1cccc2cnccc12)N1CCNCC1 [HA-100 (hydrochloride)]	12.45
O=C1/C(=C/c2ccc(O)c(Br)c2)CCC/C1=C\c1ccc(O)c(Br)c1 [HAT Inhibitor II]	−25.46
O=C(NO)c1ccc(CC(=O)N(CCO)c2ccccc2)cc1 [HPOB]	18.14
Cc1nc(Nc2cnn(C3CCNCC3)c2)nc2c1N(C)C(=O)c1cc3ccccc3cc1N2C [HTH-01-015]	−3.924
CC(C)c1cccc(=O)c(O)c1 [Hinokitiol]	−6.718
CCC(=O)N1CCOc2c(cc(-c3ccc(OC)c(OC)c3)cc2OC[C@H]2CCCN(C)C2)C1 [I-CBP112 (hydrochloride)]	20.48
O=c1[nH]cnc2c1ncn2[C@@H]1O[C@H](CO)[C@@H](O)[C@H]1O [INO-1001]	−1.319
O=C(O)CNC(=O)c1c(O)c2ccccc2n(Cc2ccccc2)c1=O [IOX2(Glycine)]	10.17
O=C(Nn1nnc2ccccc21)c1ccc(Cl)cc1Cl [ITSA-1 (ITSA1)]	7.283
NC(=O)c1ccc(I)c([N+](=O)[O-])c1 [Iniparib (BSI-201), Iniparib]	−7.53
COc1cc2ncnc(Nc3ccc(O)cc3)c2cc1OC [JANEX-1]	−13.67
O=C(NCc1ccccc1)c1c(/N=C/c2c(O)ccc3ccccc23)sc2c1CCCC2 [JGB1741]	9.247
Nc1nc(Nc2ccc(S(N)(=O)=O)cc2)nn1C(=O)c1c(F)cccc1F [JNJ-7706621]	−15.24
COc1ccc(C2(CNC(=O)c3ccc(NC(=O)c4ccco4)cc3)CCOCC2)cc1 [JW 55]	−6.598
O=S(=O)(NCCSSCCNS(=O)(=O)c1cc(Cl)ccc1Cl)c1cc(Cl)ccc1Cl [KC7F2]	−3.553
CC(=O)SCC(=O)c1ccc(NS(=O)(=O)c2ccc(OCCCN(C)C)cc2)nc1 [KD 5170]	12.43
O=C(c1ccc(/C=C/c2n[nH]c3ccccc23)cc1)N1CCNCC1 [KW 2449]	6.231
COc1ccc(S(=O)(=O)ON=C2C=C(C)C(=O)C(C)=C2)cc1 [L002]	−39.83
O=C(O)CC[C@H](O)C(=O)O [L-a-Hydroxyglutaric Acid]	−7.873

same assay, conditions: 10 uM, 48 hrs; average relative cell viability (vs 1% DMSO) of non-amplified cells (OVSAHO, CAOV3) minus that of MYC-HSF1 amplified cells (OVCAR8, OVCAR4); positive = greater response in amplified cells; 10 µM

Structure (SMILES)	Non Amp - AMP (POC) 10 uM
CCN(c1cc(-c2ccc(CN3CCOCC3)cc2)cc(C(=O)NCc2c(C)cc(C)[nH]c2=O)c1C)C1CCOCC1 [EPZ6438]	8.683 POC
O=C(O)c1ccc(CN2CCC(CN[C@@H]3C[C@H]3c3ccccc3)CC2)cc1 [GSK2879552]	13.47 POC and 12.35 POC
CCOC(=O)CCNc1cc(N2CCc3ccccc3CC2)nc(-c2ccccn2)n1.Cl [GSK J4 HCl]	−10.21 POC
Nc1ccn([C@@H]2O[C@H](CO)[C@@H](O)C2(F)F)c(=O)n1 [Gemcitabine]	28.61 POC
COc1cc2c(cc1-c1c(C)noc1C)ncc1[nH]c(=O)n([C@H](C)c3ccccn3)c12 [I-BET151]	21.72 POC
CCNC(=O)C[C@@H]1N=C(c2ccc(Cl)cc2)c2cc(OC)ccc2-n2c(C)nnc21 [I-BET-762]	5.52 POC
O=C(O)c1ccc(O)c2ncccc12 [IOX1]	11.45 POC
CCN(CC)Cc1ccc2cc(COC(=O)Nc3ccc(C(=O)NO)cc3)ccc2c1 [ITF 2357, Givinostat]	40.35 POC
Clc1ccc(N/N=C(\c2ccccc2)c2ccccn2)nc1 [JIB-04]	13.4 POC and 8.34 POC
Cn1cc(CNCC2CCN(c3ncc(C(=O)NO)cn3)CC2)c2ccccc21 [JNJ-26481585]	38.34 POC and 26.25 POC
C[S+]([O-])CCCCN=C=S [L-Sulforaphane]	−5.74 POC

same assay, conditions: 10 uM, 48 hrs; average relative cell viability (vs 1% DMSO) of non-amplified cells (OVSAHO, CAOV3) minus that of MYC-HSF1 amplified cells (OVCAR8, OVCAR4); positive = greater response in amplified cells; HCl, 10 µM

Structure (SMILES)	Non Amp - AMP (POC) 10 uM [POC]
Nc1ccn([C@@H]2O[C@H](CO)[C@@H](O)C2(F)F)c(=O)n1 [Gemcitabine HCl]	8.319

same assay, conditions: 10 uM, 48 hrs; average relative cell viability (vs 1% DMSO) of non-amplified cells (OVSAHO, CAOV3) minus that of MYC-HSF1 amplified cells (OVCAR8, OVCAR4); positive = greater response in amplified cells; listed as EPZ-6438, 10 µM

Structure (SMILES)	Non Amp - AMP (POC) 10 uM [POC]
CCN(c1cc(-c2ccc(CN3CCOCC3)cc2)cc(C(=O)NCc2c(C)cc(C)[nH]c2=O)c1C)C1CCOCC1 [EPZ6438]	3.862

same assay, conditions: 10 uM, 48 hrs; average relative cell viability (vs 1% DMSO) of non-amplified cells (OVSAHO, CAOV3) minus that of MYC-HSF1 amplified cells (OVCAR8, OVCAR4); positive = greater response in amplified cells; listed as GSK-J4 (hydrochloride), 10 µM

Structure (SMILES)	Non Amp - AMP (POC) 10 uM [POC]
CCOC(=O)CCNc1cc(N2CCc3ccccc3CC2)nc(-c2ccccn2)n1.Cl [GSK J4 HCl]	−13.06

same assay, conditions: 10 uM, 48 hrs; average relative cell viability (vs 1% DMSO) of non-amplified cells (OVSAHO, CAOV3) minus that of MYC-HSF1 amplified cells (OVCAR8, OVCAR4); positive = greater response in amplified cells; listed as I-BET151 (GSK1210151A), 10 µM

Structure (SMILES)	Non Amp - AMP (POC) 10 uM [POC]
COc1cc2c(cc1-c1c(C)noc1C)ncc1[nH]c(=O)n([C@H](C)c3ccccn3)c12 [I-BET151]	3.072

same assay, conditions: 10 uM, 48 hrs; average relative cell viability (vs 1% DMSO) of non-amplified cells (OVSAHO, CAOV3) minus that of MYC-HSF1 amplified cells (OVCAR8, OVCAR4); positive = greater response in amplified cells; listed as I-BET762, 10 µM

Structure (SMILES)	Non Amp - AMP (POC) 10 uM [POC]
CCNC(=O)C[C@@H]1N=C(c2ccc(Cl)cc2)c2cc(OC)ccc2-n2c(C)nnc21 [I-BET-762]	−1.572

same assay, conditions: 10 uM, 48 hrs; average relative cell viability (vs 1% DMSO) of non-amplified cells (OVSAHO, CAOV3) minus that of MYC-HSF1 amplified cells (OVCAR8, OVCAR4); positive = greater response in amplified cells; listed as IOX 1, 10 µM

Structure (SMILES)	Non Amp - AMP (POC) 10 uM [POC]
O=C(O)c1ccc(O)c2ncccc12 [IOX1]	2.198

same assay, conditions: 10 uM, 48 hrs; average relative cell viability (vs 1% DMSO) of non-amplified cells (OVSAHO, CAOV3) minus that of MYC-HSF1 amplified cells (OVCAR8, OVCAR4); positive = greater response in amplified cells; listed as ITF2357 (Givinostat), 10 µM

Structure (SMILES)	Non Amp - AMP (POC) 10 uM [POC]
CCN(CC)Cc1ccc2cc(COC(=O)Nc3ccc(C(=O)NO)cc3)ccc2c1 [ITF 2357, Givinostat]	13.67
